Source: patent publication US9827219B2, “Compositions and methods for lowering levels of high-sensitivity C-reactive protein (HS-CRP) in a subject” (priority 2012, dated 2017)

Assays:
Assay type in all cases: in vivo, human
TG = TG in patients with diabetes mellitus-2 (Example 2); conditions: 4 g/day, 12 weeks, on statin
From the text: (§1) Parameters (a)-(y) can be measured in accordance with any clinically acceptable methodology. For example, triglycerides, total cholesterol, HDL-C and fasting blood sugar can be sample from serum and analyzed using standard photometry techniques. VLDL-TG, LDL-C and VLDL-C can be calculated or determined using serum lipoprotein fractionation by preparative ultracentrifugation and subsequent quantitative analysis by refractometry or by analytic ultracentrifugal methodology. Apo A1, Apo B and hsCRP can be determined from serum using standard nephelometry techniques. Lipoprotein (a) can be determined from serum using standard turbidimetric immunoassay techniques. LDL particle number and particle size can be determined using nuclear magnetic resonance (NMR) spectrometry. Remnants lipoproteins and LDL-phospholipase A2 can be determined from EDTA plasma or serum and serum, respectively, using enzymatic immunoseparation techniques. Oxidized LDL, intercellular adhesion molecule-1 and interleukin-2 levels can be determined from serum using standard enzyme immunoassay techniques. These techniques are described in detail in standard textbooks, for example Tietz Fundamentals of Clinical Chemistry, 6th Ed. […]
The effect of >96% E-EPA on lipid and inflammatory parameters was evaluated in patients with fasting triglyceride levels ≧150 mg/dl and <499 mg/dl on concomitant statin therapy. […]

Non-HDL-C = Non-HDL-C in patients with diabetes mellitus-2 (Example 2); conditions: 4 g/day, 12 weeks, on statin
Procedure: The effect of >96% E-EPA on lipid and inflammatory parameters was evaluated in patients with fasting triglyceride levels ≧150 mg/dl and <499 mg/dl on concomitant statin therapy. Patients with diabetes mellitus-2 were randomized and treated with either 2 g/day >96% E-EPA, 4 g/day >96%, or placebo for twelve weeks. At the end of the treatment period, several diabetes efficacy endpoints were evaluated including, TG, LDL-C, non-HDL-C, VLDL-C, Lp-PLA2, Apo B, TC, HDL-C, VLDL-TG, hs-CRP, oxLDL, and RLP-C.

ICAM-1 = experiment: MARINE study (fasting TG ≧500 mg/dL), ICAM-1; conditions: MARINE ITT, week 12
From the text: as §1, with “Ed. (Burtis, Ashwood and Borter Eds.), WB Saunders Company.” for “Ed.”

hsCRP = experiment: MARINE study, hsCRP (also by concomitant statin use)
From the text: Parameters (a)-(y) can be measured in accordance with any clinically acceptable methodology. For example, triglycerides, total cholesterol, HDL-C and fasting blood sugar can be sample from serum and analyzed using standard photometry techniques. VLDL-TG, LDL-C and VLDL-C can be calculated or determined using serum lipoprotein fractionation by preparative ultracentrifugation and subsequent quantitative analysis by refractometry or by analytic ultracentrifugal methodology. Apo A1, Apo B and hsCRP can be determined from serum using standard nephelometry techniques. Lipoprotein (a) can be determined from serum using standard turbidimetric immunoassay techniques. LDL particle number and particle size can be determined using nuclear magnetic resonance (NMR) spectrometry. Remnants lipoproteins and LDL-phospholipase A2 can be determined from EDTA plasma or serum and serum, respectively, using enzymatic immunoseparation techniques. Oxidized LDL, intercellular adhesion molecule-1 and interleukin-2 levels can be determined from serum using standard enzyme immunoassay techniques. These techniques are described in detail in standard textbooks, for example Tietz Fundamentals of Clinical Chemistry, 6th Ed. (Burtis, Ashwood and Borter Eds.), WB Saunders Company.
A multi-center, placebo-controlled randomized, double-blind, 12-week study with an open-label extension was performed to evaluate the efficacy and safety of AMR101 in patients with fasting triglyceride levels ≧500 mg/dL. The primary objective of the study was to determine the efficacy of AMR101 2 g daily and 4 g daily, compared to placebo, in lowering fasting TG levels in patients with fasting TG levels ≧500 mg/dL and ≦1500 mg/dL (≧5.65 mmol/L and ≦16.94 mmol/L).
The population for this study was men and women (women of childbearing potential will need to be on contraception or practice abstinence)>18 years of age with a body mass index ≦45 kg/m^2 who were not on lipid-altering therapy or were currently on lipid-altering therapy. Patients currently on statin therapy (with or without ezetimibe) were evaluated by the investigator as to whether this therapy can be safely discontinued at screening, or if it should be continued. If statin therapy (with or without ezetimibe) was to be continued, dose(s) must have been stable for ≧4 weeks prior to randomization. Patients taking non-statin, lipid-altering medications (niacin >200 mg/day, fibrates, fish oil, other products containing omega-3 fatty acids, or other herbal products or dietary supplements with potential lipid-altering effects), either alone or in combination with statin therapy (with or without ezetimibe), must have been able to safely discontinue non-statin, lipid-altering therapy at screening.
Approximately 240 patients were randomized at approximately 50 centers in North America, South America, Central America, Europe, India, and South Africa. The study was a 58- to 60-week, Phase 3, multi-center study consisting of 3 study periods: (1) A 6- to 8-week screening period that included a diet and lifestyle stabilization and washout period and a TG qualifying period; (2) A 12-week, double-blind, randomized, placebo-controlled treatment period; and (3) A 40-week, open-label, extension period.
After confirmation of qualifying fasting TG values, eligible patients entered a 12-week, randomized, double-blind treatment period. At Visit 4 (Week 0), patients were randomly assigned to 1 of the following treatment groups: • AMR101 2 g daily, • AMR101 4 g daily, or • Placebo.
Eligible patients were randomly assigned at Visit 4 (Week 0) to receive orally AMR101 2 g daily, AMR101 4 g daily, or placebo for the 12-week double-blind treatment period. AMR101 was provided in 1 g liquid-filled, oblong, gelatin capsules. The matching placebo capsule was filled with light liquid paraffin and contained 0 g of AMR101. […]

[1] = well-controlled diabetes (HbA1c < median of 6.8%)

Compound: CC/C=C\C/C=C\C/C=C\C/C=C\C/C=C\CCCC(=O)OCC [AMR101, all-cis eicosa-5,8,11,14,17-pentaenoic acid ethyl ester]
- Median placebo-adjusted percent change in TG from baseline to study end (TG; total diabetes): −23.2%
- Median placebo-adjusted percent change in TG from baseline to study end (TG; [1]): −21.0%
- Median placebo-adjusted percent change in Non-HDL-C from baseline to study end (Non-HDL-C; less-controlled diabetes (HbA1c ≧ median of 6.8%)): −18.0%
- Median placebo-adjusted percent change in Non-HDL-C from baseline to study end (Non-HDL-C; total diabetes): −14.4%
- Median placebo-adjusted percent change in Non-HDL-C from baseline to study end (Non-HDL-C; [1]): −11.3%
- ICAM-1 change from baseline (median) (ICAM-1; 2 g/day): −0.4%
- ICAM-1 change from baseline (median) (ICAM-1; 4 g/day): −0.9%
- hsCRP end-of-treatment value, median (hsCRP; MARINE ITT, 2 g/day, week 12): 2.4 mg/L
- hsCRP change from baseline (median) (hsCRP; MARINE ITT, 4 g/day, week 12): −2.5%
- hsCRP end-of-treatment value, median (hsCRP; MARINE ITT, 4 g/day, week 12): 2.2 mg/L
- hsCRP median placebo-adjusted % change from baseline (hsCRP; MARINE, no statin, AMR101 2 g/day vs placebo, P 0.8297): −2.7%
- hsCRP change from baseline, median % (hsCRP; MARINE, no statin, AMR101 2 g/day, week 12): 31.7%
- hsCRP end-of-treatment value, median (hsCRP; MARINE, no statin, AMR101 2 g/day, week 12, baseline 2.2): 2.5 mg/L
- hsCRP median placebo-adjusted % change from baseline (hsCRP; MARINE, no statin, AMR101 4 g/day vs placebo, P 0.0311): −27.4%
- hsCRP change from baseline, median % (hsCRP; MARINE, no statin, AMR101 4 g/day, week 12): 0.0%
- hsCRP end-of-treatment value, median (hsCRP; MARINE, no statin, AMR101 4 g/day, week 12, baseline 2.2): 2.2 mg/L
- hsCRP median placebo-adjusted % change from baseline (hsCRP; MARINE, statin, AMR101 2 g/day vs placebo, P 0.1707): −33.2%
- hsCRP change from baseline, median % (hsCRP; MARINE, statin, AMR101 2 g/day, week 12): 11.7%
- hsCRP end-of-treatment value, median (hsCRP; MARINE, statin, AMR101 2 g/day, week 12, baseline 1.5): 1.6 mg/L
- hsCRP median placebo-adjusted % change from baseline (hsCRP; MARINE, statin, AMR101 4 g/day vs placebo, P 0.0098): −67.9%
- hsCRP change from baseline, median % (hsCRP; MARINE, statin, AMR101 4 g/day, week 12): −30.6%
- hsCRP end-of-treatment value, median (hsCRP; MARINE, statin, AMR101 4 g/day, week 12, baseline 1.9): 1.3 mg/L
- hsCRP median placebo-adjusted change from baseline (hsCRP; MARINE, 2 g/day, with concomitant statin therapy): statistically insignificant
- hsCRP median placebo-adjusted change from baseline (hsCRP; MARINE, 2 g/day, without concomitant statin therapy): statistically insignificant
- hsCRP median placebo-adjusted change from baseline (hsCRP; MARINE, 4 g/day, with concomitant statin therapy): −67.9%
- hsCRP median placebo-adjusted change from baseline (hsCRP; MARINE, 4 g/day, without concomitant statin therapy): −27.4%
